Laboratory results taken from the supplement of paper PMC10883282.
Counter-ions that a name gives are not always drawn. ± gives the standard deviation of the averaged measurements.

Tested on: SK-LMS-1
Experiment: relative viability vs DMSO control (72 h) (fraction); higher = more viable cells
How it was run: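 Sarcoma cell lines were plated in 384 wells to reach 80–90% confluence, treated after 24 h with 2.5 µl of serially diluted compound and held 72 h at 37 °C, 5% CO2. Relative viability was taken as percent growth from ATPLite readings, averaged over up to triplicate wells. The values were rescaled so that 1 marks full and 0 marks none.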

Row | SMILES | relative viability (0.00017 µM) | relative viability (0.00051 µM) | relative viability (0.00152 µM) | relative viability (0.00457 µM) | relative viability (0.01372 µM) | relative viability (0.04115 µM) | relative viability (0.1235 µM) | relative viability (0.3704 µM) | relative viability (1.111 µM) | relative viability (3.333 µM) | relative viability (10 µM)
1 | C[C@@H]1COCCN1c1cc(-c2ccnn2C)c2ccnc(-c3ccn[nH]3)c2n1 | 0.9973 ± 0.0066 | 0.992 ± 0.064 | 0.989 ± 0.033 | 1 ± 0.051 | 1 ± 0.024 | 0.928 ± 0.056 | 0.785 ± 0.035 | 0.571 ± 0.016 | 0.371 ± 0.025 | 0.271 ± 0.0038 | 0.234 ± 0.0024
2 | CCN1CCN(Cc2ccc(Nc3ncc(F)c(-c4cc(F)c5nc(C)n(C(C)C)c5c4)n3)nc2)CC1 [Abemaciclib] | 1.03 ± 0.012 | 1.05 ± 0.019 | 1.05 ± 0.057 | 1.02 ± 0.033 | 1.04 ± 0.024 | 1.01 ± 0.021 | 0.945 ± 0.037 | 0.9498 ± 0.0093 | 0.926 ± 0.043 | 0.88 ± 0.042 | 0.873 ± 0.02
3 | CCc1cc2c(cc1N1CCC(N3CCOCC3)CC1)C(C)(C)c1[nH]c3cc(C#N)ccc3c1C2=O [Alectinib] | 1.06 ± 0.056 | 1.1 ± 0.043 | 1.08 ± 0.041 | 1.1 ± 0.027 | 1.12 ± 0.018 | 1.08 ± 0.06 | 1.119 ± 0.0081 | 1.12 ± 0.0046 | 1.1 ± 0.019 | 1.11 ± 0.021 | 1.08 ± 0.016
4 | Cc1nc(NC(=O)N2CCC[C@H]2C(N)=O)sc1-c1ccnc(C(C)(C)C(F)(F)F)c1 [Alpelisib] | 1.02 ± 0.024 | 1.04 ± 0.048 | 1 ± 0.063 | 1.01 ± 0.022 | 0.967 ± 0.046 | 0.951 ± 0.048 | 0.889 ± 0.043 | 0.8312 ± 0.0082 | 0.749 ± 0.055 | 0.666 ± 0.025 | 0.54 ± 0.044
5 | Cn1cc(-c2cc3c(N4CCN(c5ncc([C@@](C)(N)c6ccc(F)cc6)cn5)CC4)ncnn3c2)cn1 [Avapritinib] | 0.9488 ± 0.004 | 0.959 ± 0.072 | 0.999 ± 0.047 | 0.989 ± 0.049 | 0.973 ± 0.061 | 0.978 ± 0.023 | 0.9338 ± 0.0068 | 0.911 ± 0.012 | 0.877 ± 0.03 | 0.7843 ± 0.0066 | 0.829 ± 0.026
6 | CC(C)NC(=O)C1CCC(n2c(NC(=O)c3ccc(F)cc3)nc3ccc(CN4CCC(C(C)(C)O)CC4)cc32)CC1 (stereo not drawn) [Belizatinib] | 1.05 ± 0.024 | 1.06 ± 0.021 | 1.06 ± 0.039 | 1.07 ± 0.04 | 1.07 ± 0.069 | 1.11 ± 0.046 | 1.09 ± 0.023 | 1.04 ± 0.074 | 0.949 ± 0.05 | 0.758 ± 0.018 | 0.38 ± 0.021
7 | Cn1cnc2c(F)c(Nc3ccc(Br)cc3F)c(C(=O)NOCCO)cc21 [Binimetinib] | 1.11 ± 0.03 | 1.16 ± 0.045 | 1.13 ± 0.034 | 1.07 ± 0.073 | 1 ± 0.011 | 0.879 ± 0.01 | 0.725 ± 0.039 | 0.646 ± 0.038 | 0.61 ± 0.016 | 0.484 ± 0.011 | 0.375 ± 0.028
8 | Nc1cc(C(F)(F)F)c(-c2cc(N3CCOCC3)nc(N3CCOCC3)n2)cn1 [Buparlisib] | 1.02 ± 0.031 | 0.9986 ± 0.0078 | 1.01 ± 0.035 | 1.02 ± 0.013 | 1.01 ± 0.038 | 0.9304 ± 0.0067 | 0.825 ± 0.018 | 0.686 ± 0.015 | 0.3771 ± 0.0013 | 0.148 ± 0.0057 | 0.102 ± 0.0085
9 | CNC(=O)c1ccc(-c2cnc3ncc(Cc4ccc5ncccc5c4)n3n2)cc1F [Capmatinib] | 1.02 ± 0.019 | 1 ± 0.07 | 0.987 ± 0.015 | 0.882 ± 0.031 | 0.617 ± 0.047 | 0.536 ± 0.0061 | 0.532 ± 0.0098 | 0.53 ± 0.013 | 0.512 ± 0.012 | 0.496 ± 0.017 | 0.5154 ± 0.005
10 | COc1cc2c(Oc3ccc4[nH]c(C)cc4c3F)ncnc2cc1OCCCN1CCCC1 [Cediranib] | 1.01 ± 0.011 | 1.02 ± 0.028 | 1.02 ± 0.038 | 1.03 ± 0.052 | 0.989 ± 0.025 | 1.02 ± 0.042 | 0.98 ± 0.017 | 0.977 ± 0.025 | 0.925 ± 0.013 | 0.911 ± 0.029 | 0.462 ± 0.066
11 | COc1c(OCCCN2CCOCC2)ccc2c1N=C(NC(=O)c1cnc(N)nc1)N1CCN=C21 [Copanlisib] | 1.05 ± 0.059 | 0.995 ± 0.035 | 0.964 ± 0.032 | 0.814 ± 0.035 | 0.744 ± 0.042 | 0.629 ± 0.014 | 0.539 ± 0.018 | 0.454 ± 0.017 | 0.365 ± 0.02 | 0.296 ± 0.014 | 0.302 ± 0.011
12 | CN1CCN(c2ccc3nc(-c4c(N)c5c(F)cccc5[nH]c4=O)[nH]c3c2)CC1 [Dovitinib] | 1.08 ± 0.053 | 1.09 ± 0.049 | 1.1 ± 0.037 | 1.14 ± 0.043 | 1.09 ± 0.063 | 1.12 ± 0.022 | 1.11 ± 0.015 | 1.07 ± 0.035 | 0.907 ± 0.017 | 0.654 ± 0.021 | 0.407 ± 0.0099
13 | COc1cccc2c1C(=O)c1c(O)c3c(c(O)c1C2=O)C[C@@](O)(C(=O)CO)C[C@@H]3O[C@H]1C[C@H](N)[C@H](O)[C@H](C)O1 [Doxorubicin Hydrochloride] | 0.998 ± 0.032 | 1.02 ± 0.038 | 1.02 ± 0.044 | 1.03 ± 0.024 | 0.967 ± 0.047 | 0.781 ± 0.011 | 0.649 ± 0.046 | 0.313 ± 0.025 | 0.209 ± 0.069 | 0.296 ± 0.0043 | 0.293 ± 0.0053
14 | Cc1cnc(Nc2ccc(OCCN3CCCC3)cc2)nc1Nc1cccc(S(=O)(=O)NC(C)(C)C)c1 [Fedratinib] | 1.01 ± 0.035 | 1 ± 0.068 | 1.04 ± 0.041 | 1.08 ± 0.062 | 1.04 ± 0.012 | 1.01 ± 0.042 | 0.99 ± 0.018 | 0.904 ± 0.034 | 0.7315 ± 0.0026 | 0.407 ± 0.011 | 0.0111 ± 0.0012
15 | C=CC(=O)N1CCC[C@@H](n2nc(-c3ccc(Oc4ccccc4)cc3)c3c(N)ncnc32)C1 [Ibrutinib] | 1.04 ± 0.048 | 1.01 ± 0.058 | 1.02 ± 0.045 | 1.03 ± 0.04 | 1.04 ± 0.015 | 1.03 ± 0.016 | 1.05 ± 0.055 | 1.05 ± 0.028 | 1.05 ± 0.012 | 0.9551 ± 0.0066 | 0.693 ± 0.032
16 | CC[C@H](Nc1ncnc2[nH]cnc12)c1nc2cccc(F)c2c(=O)n1-c1ccccc1 [Idelalisib] | 1.02 ± 0.019 | 1.02 ± 0.046 | 1.02 ± 0.084 | 1.01 ± 0.028 | 0.991 ± 0.034 | 1.02 ± 0.041 | 0.972 ± 0.049 | 0.929 ± 0.035 | 0.838 ± 0.049 | 0.71 ± 0.03 | 0.618 ± 0.025
17 | O=C(Cc1ccc(-c2ccc(OCCN3CCOCC3)cc2)cn1)NCc1ccccc1 [KX2-391] | 1.03 ± 0.047 | 1.02 ± 0.02 | 1.05 ± 0.019 | 1 ± 0.038 | 0.99 ± 0.038 | 0.704 ± 0.034 | 0.537 ± 0.023 | 0.361 ± 0.0063 | 0.338 ± 0.021 | 0.344 ± 0.018 | 0.333 ± 0.0098
18 | O=C(Nc1cnn2ccc(N3CCC[C@@H]3c3cc(F)ccc3F)nc12)N1CC[C@H](O)C1 [Larotrectinib] | 1.12 ± 0.03 | 1.16 ± 0.051 | 1.13 ± 0.057 | 1.08 ± 0.015 | 1.07 ± 0.047 | 1.11 ± 0.025 | 1.11 ± 0.028 | 1.06 ± 0.026 | 1.08 ± 0.03 | 1.08 ± 0.032 | 1.071 ± 0.0057
